Experimental data: ChEMBL document CHEMBL3751693, “Synthesis, antimicrobial evaluation and molecular modeling of 5-hydroxyisoquinolinium salt series; the effect of the hydroxyl moiety” (Bioorg Med Chem, 2016)

Key:
Pseudomonas aeruginosa [1] = test: Antimicrobial activity against clinical isolate Pseudomonas aeruginosa CCM 1961 after 72 hrs; assay type: functional; settings: CCM 1961, 72 h
Pichia kudriavzevii [2] = test: Antimicrobial activity against Candida krusei E28 after 48 hrs by spectrophotometry; assay type: functional; settings: E28, 48 h
Enterococcus sp. [3] = test: Antimicrobial activity against clinical isolate Enterococcus sp. J 1436508 after 24 hrs; assay type: functional; settings: J 1436508, 24 h
[4] = Cytotoxicity against CHOK1 cells after 24 hrs by MTT assay; assay type: cell-based; settings: Cricetulus griseus, CHO-K1, 24 h
Staphylococcus aureus [5] = test: Antimicrobial activity against clinical isolate methicillin-resistant Staphylococcus aureus H 599608 after 24 hrs; assay type: functional; settings: H 599608, 24 h
Candida albicans [6] = test: Antimicrobial activity against Candida albicans ATCC 44859 after 24 hrs by spectrophotometry; assay type: functional; settings: ATCC 44859, 24 h
Pseudomonas aeruginosa [7] = test: Antimicrobial activity against clinical isolate Pseudomonas aeruginosa CCM 1961 after 120 hrs; assay type: functional; settings: CCM 1961, 120 h
Staphylococcus aureus [8] = test: Antimicrobial activity against clinical isolate methicillin-resistant Staphylococcus aureus H 599608 after 48 hrs; assay type: functional; settings: H 599608, 48 h
Candida tropicalis [9] = test: Antimicrobial activity against Candida tropicalis 156 after 48 hrs by spectrophotometry; assay type: functional; settings: Candida tropicalis, 156, 48 h
Lichtheimia corymbifera [10] = test: Antimicrobial activity against Absidia corymbifera 272 after 24 hrs by spectrophotometry; assay type: functional; settings: Lichtheimia corymbifera, 272, 24 h
Aspergillus fumigatus [11] = test: Antimicrobial activity against Aspergillus fumigatus 231 after 48 hrs by spectrophotometry; assay type: functional; settings: Aspergillus fumigatus, 231, 48 h
Pichia kudriavzevii [12] = test: Antimicrobial activity against Candida krusei E28 after 24 hrs by spectrophotometry; assay type: functional; settings: E28, 24 h
Candida albicans [13] = test: Antimicrobial activity against Candida albicans ATCC 44859 after 48 hrs by spectrophotometry; assay type: functional; settings: ATCC 44859, 48 h
Klebsiella pneumoniae [14] = test: Antimicrobial activity against clinical isolate ESBL-Klebsiella pneumoniae J 1436808 after 48 hrs; assay type: functional; settings: J 1436808, 48 h
Klebsiella pneumoniae [15] = test: Antimicrobial activity against clinical isolate Klebsiella pneumoniae D 1175008 after 48 hrs; assay type: functional; settings: D 1175008, 48 h
Staphylococcus aureus [16] = test: Antimicrobial activity against clinical isolate Staphylococcus aureus CCM 451608 after 24 hrs; assay type: functional; settings: CCM 451608, 24 h
Klebsiella pneumoniae [17] = test: Antimicrobial activity against clinical isolate Klebsiella pneumoniae D 1175008 after 24 hrs; assay type: functional; settings: D 1175008, 24 h
Staphylococcus aureus [18] = test: Antimicrobial activity against clinical isolate Staphylococcus aureus CCM 451608 after 48 hrs; assay type: functional; settings: CCM 451608, 48 h
Trichosporon asahii [19] = test: Antimicrobial activity against Trichosporon asahii 1188 after 24 hrs by spectrophotometry; assay type: functional; settings: Trichosporon asahii, 1188, 24 h
Enterococcus sp. [20] = test: Antimicrobial activity against clinical isolate Enterococcus sp. J 1436508 after 48 hrs; assay type: functional; settings: J 1436508, 48 h
Escherichia coli [21] = test: Antimicrobial activity against clinical isolate Escherichia coli CCM 4517 after 48 hrs; assay type: functional; settings: CCM 4517, 48 h
Trichosporon asahii [22] = test: Antimicrobial activity against Trichosporon asahii 1188 after 48 hrs by spectrophotometry; assay type: functional; settings: Trichosporon asahii, 1188, 48 h
Klebsiella pneumoniae [23] = test: Antimicrobial activity against clinical isolate ESBL-Klebsiella pneumoniae J 1436808 after 24 hrs; assay type: functional; settings: J 1436808, 24 h
Nakaseomyces glabratus [24] = test: Antimicrobial activity against Candida glabrata 20/I after 48 hrs by spectrophotometry; assay type: functional
[25] = test system: Staphylococcus epidermidis; test: Antimicrobial activity against clinical isolate Staphylococcus epidermidis H 696608 after 48 hrs; assay type: functional; settings: H 696608, 48 h
Escherichia coli [26] = test: Antimicrobial activity against clinical isolate Escherichia coli CCM 4517 after 24 hrs; assay type: functional; settings: CCM 4517, 24 h
Nakaseomyces glabratus [27] = test: Antimicrobial activity against Candida glabrata 20/I after 24 hrs by spectrophotometry; assay type: functional
Candida tropicalis [28] = test: Antimicrobial activity against Candida tropicalis 156 after 24 hrs by spectrophotometry; assay type: functional; settings: Candida tropicalis, 156, 24 h
Lichtheimia corymbifera [29] = test: Antimicrobial activity against Absidia corymbifera 272 after 48 hrs by spectrophotometry; assay type: functional; settings: Lichtheimia corymbifera, 272, 48 h
Aspergillus fumigatus [30] = test: Antimicrobial activity against Aspergillus fumigatus 231 after 24 hrs by spectrophotometry; assay type: functional; settings: Aspergillus fumigatus, 231, 24 h
[31] = test system: Trichophyton mentagrophytes; test: Antimicrobial activity against Trichophyton mentagrophytes 445 after 72 hrs by spectrophotometry; assay type: functional; settings: Trichophyton mentagrophytes, 445, 72 h
[32] = test system: Trichophyton mentagrophytes; test: Antimicrobial activity against Trichophyton mentagrophytes 445 after 120 hrs by spectrophotometry; assay type: functional; settings: Trichophyton mentagrophytes, 445, 120 h
[33] = test system: Staphylococcus epidermidis; test: Antimicrobial activity against clinical isolate Staphylococcus epidermidis H 696608 after 24 hrs; assay type: functional; settings: H 696608, 24 h

## CCCCCCCCCCCCCC[N+](C)(C)Cc1ccccc1
Pseudomonas aeruginosa [1]
  MIC: 16 µM
Pichia kudriavzevii [2]
  MFC: 125 µM
  MIC: 3.9 µM
Enterococcus sp. [3]
  MIC: 2 µM
[4]
  IC50: 24 µM
Staphylococcus aureus [5]
  MIC: 2 µM
Candida albicans [6]
  MIC: 7.8 µM
Pseudomonas aeruginosa [7]
  MBC: 63 µM
  MIC: 16 µM
Staphylococcus aureus [8]
  MBC: 3.9 µM
  MIC: 2 µM
Candida tropicalis [9]
  MFC: 125 µM
  MIC: 3.9 µM
Lichtheimia corymbifera [10]
  MIC: 31 µM
Aspergillus fumigatus [11]
  MFC: 125 µM
  MIC: 16 µM
Pichia kudriavzevii [12]
  MIC: 3.9 µM
Candida albicans [13]
  MFC: 125 µM
  MIC: 7.8 µM
Klebsiella pneumoniae [14]
  MBC: 7.8 µM
  MIC: 7.8 µM
Klebsiella pneumoniae [15]
  MBC: 7.8 µM
  MIC: 7.8 µM
Staphylococcus aureus [16]
  MIC: 1 µM
Klebsiella pneumoniae [17]
  MIC: 7.8 µM
Staphylococcus aureus [18]
  MBC: 3.9 µM
  MIC: 1 µM
Trichosporon asahii [19]
  MIC: 31 µM
Enterococcus sp. [20]
  MBC: 7.8 µM
  MIC: 2 µM
Escherichia coli [21]
  MBC: 7.8 µM
  MIC: 7.8 µM
Trichosporon asahii [22]
  MFC: 125 µM
  MIC: 31 µM
Klebsiella pneumoniae [23]
  MIC: 7.8 µM
Nakaseomyces glabratus [24]
  MFC: 125 µM
  MIC: 7.8 µM
[25]
  MBC: 1 µM
  MIC: 1 µM
Escherichia coli [26]
  MIC: 7.8 µM
Nakaseomyces glabratus [27]
  MIC: 7.8 µM
Candida tropicalis [28]
  MIC: 3.9 µM
Lichtheimia corymbifera [29]
  MFC: 125 µM
  MIC: 31 µM
Aspergillus fumigatus [30]
  MIC: 7.8 µM
[31]
  MIC: 16 µM
[32]
  MFC: 16 µM
  MIC: 16 µM
[33]
  MIC: 1 µM

## CCCCCCCCCCCC[N+](C)(C)Cc1ccccc1
Pseudomonas aeruginosa [1]
  MIC: 3.9 µM
Pichia kudriavzevii [2]
  MFC: 0.5 µM
  MIC: 0.5 µM
Enterococcus sp. [3]
  MIC: 0.5 µM
[4]
  IC50: 29 µM
Staphylococcus aureus [5]
  MIC: 0.5 µM
Candida albicans [6]
  MIC: 0.5 µM
Pseudomonas aeruginosa [7]
  MBC: 7.8 µM
  MIC: 3.9 µM
Staphylococcus aureus [8]
  MBC: 1 µM
  MIC: 0.5 µM
Candida tropicalis [9]
  MFC: 1 µM
  MIC: 0.5 µM
Lichtheimia corymbifera [10]
  MIC: 7.8 µM
Aspergillus fumigatus [11]
  MFC: 3.9 µM
  MIC: 3.9 µM
Pichia kudriavzevii [12]
  MIC: 0.5 µM
Candida albicans [13]
  MFC: 1 µM
  MIC: 0.5 µM
Klebsiella pneumoniae [14]
  MBC: 1 µM
  MIC: 1 µM
Klebsiella pneumoniae [15]
  MBC: 0.5 µM
  MIC: 0.5 µM
Staphylococcus aureus [16]
  MIC: 0.5 µM
Klebsiella pneumoniae [17]
  MIC: 0.5 µM
Staphylococcus aureus [18]
  MBC: 2 µM
  MIC: 2 µM
Trichosporon asahii [19]
  MIC: 0.5 µM
Enterococcus sp. [20]
  MBC: 1 µM
  MIC: 1 µM
Escherichia coli [21]
  MBC: 2 µM
  MIC: 2 µM
Trichosporon asahii [22]
  MFC: 2 µM
  MIC: 2 µM
Klebsiella pneumoniae [23]
  MIC: 1 µM
Nakaseomyces glabratus [24]
  MFC: 0.5 µM
  MIC: 0.5 µM
[25]
  MBC: 0.5 µM
  MIC: 0.5 µM
Escherichia coli [26]
  MIC: 0.5 µM
Nakaseomyces glabratus [27]
  MIC: 0.5 µM
Candida tropicalis [28]
  MIC: 0.5 µM
Lichtheimia corymbifera [29]
  MFC: 7.8 µM
  MIC: 7.8 µM
Aspergillus fumigatus [30]
  MIC: 1 µM
[31]
  MIC: 1 µM
[32]
  MFC: 2 µM
  MIC: 1 µM
[33]
  MIC: 0.5 µM

## CCCCCCCCCCCCCCCC[N+](C)(C)Cc1ccccc1
Pseudomonas aeruginosa [1]
  MIC: 16 µM
Pichia kudriavzevii [2]
  MFC: 2 µM
  MIC: 2 µM
Enterococcus sp. [3]
  MIC: 2 µM
[4]
  IC50: 15 µM
Staphylococcus aureus [5]
  MIC: 2 µM
Candida albicans [6]
  MIC: 3.9 µM
Pseudomonas aeruginosa [7]
  MBC: 125 µM
  MIC: 16 µM
Staphylococcus aureus [8]
  MBC: 3.9 µM
  MIC: 2 µM
Candida tropicalis [9]
  MFC: 7.8 µM
  MIC: 7.8 µM
Lichtheimia corymbifera [10]
  MIC: 7.8 µM
Aspergillus fumigatus [11]
  MFC: 63 µM
  MIC: 7.8 µM
Pichia kudriavzevii [12]
  MIC: 2 µM
Candida albicans [13]
  MFC: 7.8 µM
  MIC: 7.83 µM
Klebsiella pneumoniae [14]
  MBC: 7.8 µM
  MIC: 7.8 µM
Klebsiella pneumoniae [15]
  MBC: 7.8 µM
  MIC: 7.8 µM
Staphylococcus aureus [16]
  MIC: 1 µM
Klebsiella pneumoniae [17]
  MIC: 7.8 µM
Staphylococcus aureus [18]
  MBC: 3.9 µM
  MIC: 1 µM
Trichosporon asahii [19]
  MIC: 7.8 µM
Enterococcus sp. [20]
  MBC: 3.9 µM
  MIC: 2 µM
Escherichia coli [21]
  MBC: 7.8 µM
  MIC: 7.8 µM
Trichosporon asahii [22]
  MFC: 63 µM
  MIC: 7.8 µM
Klebsiella pneumoniae [23]
  MIC: 7.8 µM
Nakaseomyces glabratus [24]
  MFC: 63 µM
  MIC: 3.9 µM
[25]
  MBC: 3.9 µM
  MIC: 0.5 µM
Escherichia coli [26]
  MIC: 7.8 µM
Nakaseomyces glabratus [27]
  MIC: 2 µM
Candida tropicalis [28]
  MIC: 3.9 µM
Lichtheimia corymbifera [29]
  MFC: 63 µM
  MIC: 7.8 µM
Aspergillus fumigatus [30]
  MIC: 7.8 µM
[31]
  MIC: 7.8 µM
[32]
  MFC: 63 µM
  MIC: 7.8 µM
[33]
  MIC: 0.5 µM
